Laboratory results from PubChem BioAssay (NCI).
“And” between values parts separate entries of the source, which are not always exact repeats. Equal values may be shown once.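 Test compounds were applied to cells in 96-well plates for 48 hours at 5 doses. GI50 = concentration required for 50% inhibition of growth. TGI: total growth inhibition.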

Assays:
Test in all cases: NCI tumour cell line growth inhibition, 48 h
[1] = test system: CAKI-1 renal
[2] = test system: OVCAR-5 ovarian
[3] = test system: RXF 393 renal
[4] = test system: MDA-MB-435
[5] = test system: CCRF-CEM leukemia
[6] = test system: EKVX NSCLC
[7] = test system: BT-549 breast
[8] = test system: PC-3 prostate
[9] = test system: HT29 colon
[10] = test system: HS 578T breast
[11] = test system: 786-0 renal
[12] = test system: NCI-H460 lung
[13] = test system: RPMI-8226 leukemia

Row | Structure (SMILES) | TGI [1] | TGI [2] [µM] | TGI [3] [µM] | TGI [4] | TGI [5] [µM] | TGI [6] | TGI [7] | TGI [8] [µM] | TGI [9] [µM] | TGI [10] [µM] | TGI [11] | TGI [12] [µM] | TGI [13] [µM] | GI50 [1] [µM] | GI50 [4] | GI50 [6] [µM] | GI50 [7] [µM]
1 | COC1(OC)c2occc2C(=N)c2ccc(=O)oc21 | > 100 µM | > 100 | > 100 | > 100 µM | > 100 | > 100 µM | > 100 µM | > 100 | > 100 | > 100 | > 100 µM | > 100 | > 100 |  |  |  | 
2 | CCCCCCCCCCCCCCCCCCNc1ccn(C2OC(COP(=O)(O)OCC3OC(n4ccc(N)nc4=O)C(O)C3O)C(O)C2O)c(=O)n1 (configuration not stated) | > 100 µM | > 100 | > 100 | > 100 µM | > 100 | > 100 µM | > 87.9 µM | > 100 | > 100 | > 100 | > 100 µM | > 78.8 | > 100 |  |  |  | 
3 | O=C(Nn1c(-c2ccccc2)nc2ccccc2c1=O)c1ccc(Cl)cc1 |  | > 100 | > 100 | > 100 µM | > 100 | > 100 µM | > 100 µM | > 100 | > 100 | > 100 | > 100 µM | > 100 | > 100 |  |  |  | 
4 | C=CCC(CCC(C)=O)(C(=O)OCC)C(=O)OCC | > 100 µM | > 100 | > 100 | > 100 µM | > 100 | > 100 µM | > 100 µM | > 100 | > 100 | > 100 | > 100 µM | > 100 | > 100 |  |  |  | 
5 | COc1ccc(-c2oc3cc(-c4cc5oc(-c6ccc(OC)cc6)c(-c6ccc(OC)cc6)c5cc4OC)c(OC)cc3c2-c2ccc(OC)cc2)cc1 | > 100 µM | > 100 | > 100 | > 100 µM | > 100 | > 100 µM | > 100 µM | > 100 | > 100 | > 100 | > 100 µM | > 100 | > 100 |  |  |  | 
6 | CCN1CCC(O)(c2ccc([N+](=O)[O-])cc2)C(C(=O)c2ccc([N+](=O)[O-])cc2)C1 (configuration not stated) | 41.2 µM | > 100 | 30 | 43.5 µM | > 100 | 37.6 µM | 30.8 µM | > 100 | > 100 | 61.7 | 29.9 µM | 48.7 | 17.8 |  |  |  | 
7 | CCN1/C(=C/C#C/C(C)=C\c2sc3ccc(Cl)cc3[n+]2CC)Sc2ccc(Cl)cc21 | 7.13 µM | 21.3 | 21.3 | 13.7 µM | > 100 | 20.8 µM | 6 µM | 9.11 | 14 | 28.8 | 15.1 µM | > 100 |  |  |  |  | 
8 | COC(=O)/C=C(\C(=O)OC)c1cc(C)c2cc(C(C)C)ccc(C)c1-2 | > 100 µM | > 100 | > 100 | > 100 µM | > 100 | > 100 µM | > 100 µM | > 100 | 26.7 | > 100 | > 100 µM | > 100 | > 100 |  |  |  | 
9 | Cc1nc2sc3cccc(Cl)c3n2c(=O)c1N=Nc1ccc(Cl)cc1 | > 100 µM | > 100 | > 100 | > 100 µM | > 100 | > 100 µM | > 100 µM | > 100 | > 100 | > 100 | > 100 µM | > 100 | > 100 |  |  |  | 
10 | CC1=NN(c2nc(N)nc(C(C)Cl)n2)C(C)(C)C1 (configuration not stated) | > 100 µM |  | > 100 | > 100 µM | > 100 | > 100 µM | > 100 µM | > 100 | > 100 | > 100 | > 100 µM | > 100 | > 100 |  |  |  | 
11 | CC(=O)c1ccc(N=NN2CCCC2)cc1 | > 100 µM | > 100 | > 100 | > 100 µM | > 100 | > 100 µM | > 100 µM | > 100 |  | > 100 | > 100 µM | > 100 |  |  |  |  | 
12 | O=[N+]([O-])c1cccc2nc3ccccc3c(NCCCCCNc3c4ccccc4nc4cccc([N+](=O)[O-])c34)c12 | 0.278 µM and 0.0712 µM | 0.935 | 0.111 | 0.259 µM and 0.0288 µM |  | 0.353 µM and 1.25 µM | 0.39 µM and 1.02 µM | 0.598 | 0.0922 | 0.512 | 0.0666 µM and 0.0332 µM | 0.164 | 0.637 | 0.0199 | 0.105 µM and 0.0111 µM | 0.0346 | 0.183
13 | COC1(OC)CCc2c(sc3ncnc(Nc4cccc(Br)c4)c23)C1 | > 100 µM | 51.4 | 62.4 | > 100 µM |  | 59.2 µM | > 100 µM | > 100 | 45.1 | > 100 | > 100 µM | > 100 | 59.5 |  |  |  | 
14 | Cc1cc(O)c(/C=N/C(N)=S)c(=O)o1 | > 100 µM | > 100 | > 100 | > 100 µM | 84.4 | > 100 µM | > 100 µM | > 100 |  | > 100 | > 100 µM | > 100 |  |  |  |  | 
